Literature values as cited in US11946086B2, “Gene involved in synthesis of cyclic peptide compound, method for producing cyclic peptide compound using the same, and transformant comprising the same” (NATIONAL INSTITUTE OF ADVANCED INDUSTRIAL SCIENCE AND …, priority 2017, dated 2024).
Non-standard residues stand in square brackets, D forms with d. Residues, ends and D or L forms follow the SMILES beside them. NMeI = CC[CH](C)[CH](NC)C(=O)O; NMeD = CN[CH](CC(=O)O)C(=O)O; NMeV = CN[CH](C(=O)O)C(C)C; Pip = O=C(O)[CH]1CCCCN1; Lac = C[CH](O)C(=O)O

System: plant pathogenic bacteria, and, in particular, fungi
Details: against plant pathogenic bacteria

For `CCC(C)C1C(=O)NCC(=O)N(C)C(C(C)C)C(=O)NC(Cc2ccc(OC)cc2)C(=O)OC(C)C(=O)N2CCCCC2C(=O)N(C)C(C(C)C)C(=O)NC(C(C)C)C(=O)N(C)C(CC(=O)O)C(=O)N(C)C(C(C)C)C(=O)N1C` (stereo not shown) [KK-1, Tyrosine, N-[N-[N-[N-[N-[N-[N-[N-[[1-(2-hydroxy-1-oxopropyl)-2-piperidinyl]carbonyl]-N-methylvalyl]valyl]-N-methyl-a-aspartyl]-N-methylvalyl]-N-methylisoleucyl]glycyl]-N-methylvalyl]-O-methyl-, d2-lactone (9CI)] (cyclo(G[NMeV]Y(Me)[Lac][Pip][NMeV]V[NMeD][NMeV][NMeI]); configuration not given here), the bactericidal activity is given as “potent bactericidal activity”.
